Test results published in ChEMBL document CHEMBL1177794, “Broad spectrum alkynyl inhibitors of T315I Bcr-Abl” (Bioorg Med Chem Lett, 2010).

Columns and labels:
[1] = tested on: Tyrosine-protein kinase ABL1 (Homo sapiens), P00519 [M351T]; assay: Inhibition of phosphorylated ABL1 M351T mutant at 10 uM; details: values are per cent of control
[2] = target: SRSF protein kinase 3 (Homo sapiens) (UniProt Q9UPE1); assay: Inhibition of SRPK3 at 10 uM
[3] = target: Calcium-dependent protein kinase 1 (Plasmodium falciparum) (UniProt P62344); assay: Inhibition of Plasmodium falciparum PFCDPK1 at 10 uM; details: values are per cent of control
[4] = target: Dual specificity mitogen-activated protein kinase kinase 7 (Homo sapiens) (UniProt O14733); assay: Inhibition of MKK7 at 10 uM
[5] = target: Serine/threonine-protein kinase BRSK2 (Homo sapiens) (UniProt Q8IWQ3); assay: Inhibition of BRSK2 at 10 uM; values are per cent of control
[6] = target: Proto-oncogene tyrosine-protein kinase Src (Homo sapiens) (UniProt P12931); assay: Inhibition of SRC at 10 uM; values are per cent of control
[7] = target: Protein kinase C iota type (Homo sapiens) (UniProt P41743); assay: Inhibition of PRKCI at 10 uM
[8] = target: Calcium/calmodulin-dependent protein kinase type 1 (Homo sapiens) (UniProt Q14012); assay: Inhibition of CAMK1 at 10 uM; details: values are per cent of control
[9] = target: Serine/threonine-protein kinase Chk1 (Homo sapiens) (UniProt O14757); assay: Inhibition of CHEK1 at 10 uM; values are per cent of control
[10] = tested on: Tyrosine-protein kinase ABL1 (Homo sapiens), P00519 [F317I]; assay: Inhibition of phosphorylated ABL1 F317I mutant at 10 uM; details: values are per cent of control
[11] = target: Serine/threonine-protein kinase NIM1 (Homo sapiens) (UniProt Q8IY84); assay: Inhibition of NIM1 at 10 uM
[12] = target: cAMP-dependent protein kinase catalytic subunit alpha (Homo sapiens) (UniProt P17612); assay: Inhibition of PKAC-alpha at 10 uM; details: values are per cent of control
[13] = target: Tyrosine-protein kinase Fes/Fps (Homo sapiens) (UniProt P07332); assay: Inhibition of FES at 10 uM; details: values are per cent of control
[14] = target: Cyclin-dependent kinase 15 (Homo sapiens) (UniProt Q96Q40); assay: Inhibition of PFTAIRE2 at 10 uM; details: values are per cent of control
[15] = tested on: Receptor-type tyrosine-protein kinase FLT3 (Homo sapiens), P36888 [N841I]; assay: Inhibition of FLT3 N841I mutant at 10 uM; details: values are per cent of control
[16] = target: Tyrosine-protein kinase ITK/TSK (Homo sapiens) (UniProt Q08881); assay: Inhibition of ITK at 10 uM; values are per cent of control
[17] = target: Mitogen-activated protein kinase kinase kinase kinase 3 (Homo sapiens) (UniProt Q8IVH8); assay: Inhibition of MAP4K3 at 10 uM; values are per cent of control
[18] = target: Dual specificity mitogen-activated protein kinase kinase 4 (Homo sapiens) (UniProt P45985); assay: Inhibition of MEK4 at 10 uM; details: values are per cent of control
[19] = tested on: Epidermal growth factor receptor (Homo sapiens), P00533 [G719C]; assay: Inhibition of EGFR G719C mutant at 10 uM; values are per cent of control
[20] = target: Epidermal growth factor receptor (Homo sapiens) (UniProt P04626+P00533+Q15303+P21860); assay: Inhibition of EGFR E746-A750del mutant at 10 uM; values are per cent of control
[21] = target: STE20-like serine/threonine-protein kinase (Homo sapiens) (UniProt Q9H2G2); assay: Inhibition of SLK at 10 uM
[22] = target: NT-3 growth factor receptor (Homo sapiens) (UniProt Q16288); assay: Inhibition of TRKC at 10 uM; details: values are per cent of control
[23] = target: Ephrin type-A receptor 8 (Homo sapiens) (UniProt P29322); assay: Inhibition of EPHA8 at 10 uM; details: values are per cent of control
[24] = target: Rhodopsin kinase GRK7 (Homo sapiens) (UniProt Q8WTQ7); assay: Inhibition of GRK7 at 10 uM; details: values are per cent of control
[25] = target: Platelet-derived growth factor receptor beta (Homo sapiens) (UniProt P09619); assay: Inhibition of PDGFRB at 10 uM; values are per cent of control
[26] = target: Cyclin-dependent kinase 2 homolog (Plasmodium falciparum (isolate K1 / Thailand)) (UniProt Q07785); assay: Inhibition of Plasmodium falciparum PFPK5 at 10 uM
[27] = target: Mitogen-activated protein kinase 8 (Homo sapiens) (UniProt P45983); assay: Inhibition of JNK1 at 10 uM; values are per cent of control
[28] = target: RAC-gamma serine/threonine-protein kinase (Homo sapiens) (UniProt Q9Y243); assay: Inhibition of AKT3 at 10 uM; details: values are per cent of control
[29] = target: Mitogen-activated protein kinase kinase kinase kinase 5 (Homo sapiens) (UniProt Q9Y4K4); assay: Inhibition of MAP4K5 at 10 uM; details: values are per cent of control
[30] = target: Myosin light chain kinase, smooth muscle (Homo sapiens) (UniProt Q15746); assay: Inhibition of MYLK at 10 uM
[31] = target: Myosin light chain kinase, smooth muscle (Homo sapiens) (UniProt Q15746); assay: Inhibition of MLCK at 10 uM; values are per cent of control
[32] = target: Rho-associated protein kinase 1 (Homo sapiens) (UniProt Q13464); assay: Inhibition of ROCK1 at 10 uM
[33] = target: Dual specificity mitogen-activated protein kinase kinase 6 (Homo sapiens) (UniProt P52564); assay: Inhibition of MEK6 at 10 uM; details: values are per cent of control
[34] = target: Phosphatidylinositol 4,5-bisphosphate 3-kinase catalytic subunit gamma isoform (Homo sapiens) (UniProt P48736); assay: Inhibition of PIK3CG at 10 uM
[35] = target: Phosphatidylinositol 4-phosphate 5-kinase type-1 gamma (Homo sapiens) (UniProt O60331); assay: Inhibition of PIP5K1C at 10 uM
[36] = target: Mitogen-activated protein kinase 15 (Homo sapiens) (UniProt Q8TD08); assay: Inhibition of ERK8 at 10 uM; details: values are per cent of control
[37] = target: Tyrosine-protein kinase Fgr (Homo sapiens) (UniProt P09769); assay: Inhibition of FGR at 10 uM; details: values are per cent of control
[38] = target: LIM domain kinase 1 (Homo sapiens) (UniProt P53667); assay: Inhibition of LIMK1 at 10 uM; details: values are per cent of control
[39] = target: Mitogen-activated protein kinase 13 (Homo sapiens) (UniProt O15264); assay: Inhibition of p38delta at 10 uM; values are per cent of control
[40] = tested on: Phosphatidylinositol 4,5-bisphosphate 3-kinase catalytic subunit alpha isoform (Homo sapiens), P42336 [E545A]; assay: Inhibition of PIK3CA E545A mutant at 10 uM

Sequence of Myosin light chain kinase, smooth muscle (Homo sapiens) (Q15746 whole entry): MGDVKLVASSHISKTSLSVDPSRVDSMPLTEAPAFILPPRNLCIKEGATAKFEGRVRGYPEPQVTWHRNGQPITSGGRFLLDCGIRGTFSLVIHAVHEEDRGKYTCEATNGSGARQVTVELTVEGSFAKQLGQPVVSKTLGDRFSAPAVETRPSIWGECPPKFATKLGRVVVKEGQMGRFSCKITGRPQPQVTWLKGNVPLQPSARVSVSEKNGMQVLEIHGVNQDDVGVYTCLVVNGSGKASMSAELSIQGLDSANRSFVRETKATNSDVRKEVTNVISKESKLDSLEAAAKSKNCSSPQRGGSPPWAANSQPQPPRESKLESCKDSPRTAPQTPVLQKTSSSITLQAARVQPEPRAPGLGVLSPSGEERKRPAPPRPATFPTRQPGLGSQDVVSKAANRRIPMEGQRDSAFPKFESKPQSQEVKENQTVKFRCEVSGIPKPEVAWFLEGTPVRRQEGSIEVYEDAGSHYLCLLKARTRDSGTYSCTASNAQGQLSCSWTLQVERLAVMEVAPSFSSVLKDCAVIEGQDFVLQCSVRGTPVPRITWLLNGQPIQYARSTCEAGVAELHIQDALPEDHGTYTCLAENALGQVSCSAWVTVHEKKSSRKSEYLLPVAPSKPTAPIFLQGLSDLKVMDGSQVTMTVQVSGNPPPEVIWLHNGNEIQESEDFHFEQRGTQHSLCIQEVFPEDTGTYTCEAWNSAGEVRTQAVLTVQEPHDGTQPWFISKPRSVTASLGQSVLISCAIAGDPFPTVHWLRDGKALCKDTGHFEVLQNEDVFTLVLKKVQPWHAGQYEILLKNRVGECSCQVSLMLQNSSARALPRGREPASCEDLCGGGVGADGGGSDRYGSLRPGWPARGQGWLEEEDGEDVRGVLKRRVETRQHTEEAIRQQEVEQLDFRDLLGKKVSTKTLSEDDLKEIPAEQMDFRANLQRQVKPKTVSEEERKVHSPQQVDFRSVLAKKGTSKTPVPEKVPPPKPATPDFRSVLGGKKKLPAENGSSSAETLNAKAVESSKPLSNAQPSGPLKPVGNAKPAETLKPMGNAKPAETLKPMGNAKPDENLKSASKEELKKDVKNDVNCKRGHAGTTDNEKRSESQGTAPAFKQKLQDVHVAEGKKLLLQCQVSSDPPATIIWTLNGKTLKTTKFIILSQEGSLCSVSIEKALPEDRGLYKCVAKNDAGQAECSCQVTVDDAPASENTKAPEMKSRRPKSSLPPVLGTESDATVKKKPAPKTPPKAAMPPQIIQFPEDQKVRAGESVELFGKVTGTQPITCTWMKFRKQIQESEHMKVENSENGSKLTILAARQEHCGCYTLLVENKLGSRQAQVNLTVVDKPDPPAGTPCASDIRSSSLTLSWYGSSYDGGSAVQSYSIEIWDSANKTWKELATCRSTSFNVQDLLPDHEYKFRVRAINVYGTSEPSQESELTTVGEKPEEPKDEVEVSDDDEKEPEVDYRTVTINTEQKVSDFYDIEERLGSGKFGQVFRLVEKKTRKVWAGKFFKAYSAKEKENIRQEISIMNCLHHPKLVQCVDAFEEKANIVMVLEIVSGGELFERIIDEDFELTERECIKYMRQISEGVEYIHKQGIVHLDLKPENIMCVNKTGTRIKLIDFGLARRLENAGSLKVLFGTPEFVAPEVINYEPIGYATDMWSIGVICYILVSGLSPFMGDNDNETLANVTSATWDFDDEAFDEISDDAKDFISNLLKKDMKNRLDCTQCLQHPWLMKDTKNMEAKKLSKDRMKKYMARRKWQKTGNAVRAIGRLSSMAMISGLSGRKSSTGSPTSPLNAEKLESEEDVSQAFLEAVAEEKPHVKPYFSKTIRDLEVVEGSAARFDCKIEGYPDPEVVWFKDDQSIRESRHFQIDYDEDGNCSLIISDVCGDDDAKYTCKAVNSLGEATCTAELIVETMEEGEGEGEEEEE
Sequence of Proto-oncogene tyrosine-protein kinase Src (Homo sapiens) (P12931 2-536 limits assumed): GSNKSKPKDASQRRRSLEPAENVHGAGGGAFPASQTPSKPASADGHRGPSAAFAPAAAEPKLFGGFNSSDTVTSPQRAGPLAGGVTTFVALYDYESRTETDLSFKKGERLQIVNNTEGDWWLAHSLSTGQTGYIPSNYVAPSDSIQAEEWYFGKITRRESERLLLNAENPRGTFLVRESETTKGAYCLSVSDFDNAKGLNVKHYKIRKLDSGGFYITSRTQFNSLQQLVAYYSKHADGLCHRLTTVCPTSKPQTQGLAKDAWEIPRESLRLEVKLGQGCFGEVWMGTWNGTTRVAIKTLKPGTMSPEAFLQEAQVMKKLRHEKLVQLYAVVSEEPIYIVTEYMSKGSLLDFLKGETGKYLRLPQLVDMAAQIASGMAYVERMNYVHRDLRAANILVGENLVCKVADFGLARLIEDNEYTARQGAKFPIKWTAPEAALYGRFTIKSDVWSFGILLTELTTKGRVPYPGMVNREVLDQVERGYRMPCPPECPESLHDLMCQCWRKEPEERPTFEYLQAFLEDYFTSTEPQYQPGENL
Sequence of Dual specificity mitogen-activated protein kinase kinase 7 (Homo sapiens) (O14733 whole entry): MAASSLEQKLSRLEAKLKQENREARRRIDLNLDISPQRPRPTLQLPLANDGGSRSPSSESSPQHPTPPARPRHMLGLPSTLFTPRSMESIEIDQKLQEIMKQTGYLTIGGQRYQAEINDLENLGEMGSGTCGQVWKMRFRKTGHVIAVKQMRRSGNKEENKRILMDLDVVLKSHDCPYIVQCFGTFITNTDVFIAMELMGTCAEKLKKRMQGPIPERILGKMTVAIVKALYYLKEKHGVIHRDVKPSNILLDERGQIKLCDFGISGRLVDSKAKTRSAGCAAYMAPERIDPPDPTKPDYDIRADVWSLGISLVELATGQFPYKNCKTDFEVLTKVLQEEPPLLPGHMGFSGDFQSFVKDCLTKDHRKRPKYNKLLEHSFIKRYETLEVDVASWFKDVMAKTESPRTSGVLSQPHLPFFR
Sequence of Rho-associated protein kinase 1 (Homo sapiens) (Q13464 2-1354 limits assumed): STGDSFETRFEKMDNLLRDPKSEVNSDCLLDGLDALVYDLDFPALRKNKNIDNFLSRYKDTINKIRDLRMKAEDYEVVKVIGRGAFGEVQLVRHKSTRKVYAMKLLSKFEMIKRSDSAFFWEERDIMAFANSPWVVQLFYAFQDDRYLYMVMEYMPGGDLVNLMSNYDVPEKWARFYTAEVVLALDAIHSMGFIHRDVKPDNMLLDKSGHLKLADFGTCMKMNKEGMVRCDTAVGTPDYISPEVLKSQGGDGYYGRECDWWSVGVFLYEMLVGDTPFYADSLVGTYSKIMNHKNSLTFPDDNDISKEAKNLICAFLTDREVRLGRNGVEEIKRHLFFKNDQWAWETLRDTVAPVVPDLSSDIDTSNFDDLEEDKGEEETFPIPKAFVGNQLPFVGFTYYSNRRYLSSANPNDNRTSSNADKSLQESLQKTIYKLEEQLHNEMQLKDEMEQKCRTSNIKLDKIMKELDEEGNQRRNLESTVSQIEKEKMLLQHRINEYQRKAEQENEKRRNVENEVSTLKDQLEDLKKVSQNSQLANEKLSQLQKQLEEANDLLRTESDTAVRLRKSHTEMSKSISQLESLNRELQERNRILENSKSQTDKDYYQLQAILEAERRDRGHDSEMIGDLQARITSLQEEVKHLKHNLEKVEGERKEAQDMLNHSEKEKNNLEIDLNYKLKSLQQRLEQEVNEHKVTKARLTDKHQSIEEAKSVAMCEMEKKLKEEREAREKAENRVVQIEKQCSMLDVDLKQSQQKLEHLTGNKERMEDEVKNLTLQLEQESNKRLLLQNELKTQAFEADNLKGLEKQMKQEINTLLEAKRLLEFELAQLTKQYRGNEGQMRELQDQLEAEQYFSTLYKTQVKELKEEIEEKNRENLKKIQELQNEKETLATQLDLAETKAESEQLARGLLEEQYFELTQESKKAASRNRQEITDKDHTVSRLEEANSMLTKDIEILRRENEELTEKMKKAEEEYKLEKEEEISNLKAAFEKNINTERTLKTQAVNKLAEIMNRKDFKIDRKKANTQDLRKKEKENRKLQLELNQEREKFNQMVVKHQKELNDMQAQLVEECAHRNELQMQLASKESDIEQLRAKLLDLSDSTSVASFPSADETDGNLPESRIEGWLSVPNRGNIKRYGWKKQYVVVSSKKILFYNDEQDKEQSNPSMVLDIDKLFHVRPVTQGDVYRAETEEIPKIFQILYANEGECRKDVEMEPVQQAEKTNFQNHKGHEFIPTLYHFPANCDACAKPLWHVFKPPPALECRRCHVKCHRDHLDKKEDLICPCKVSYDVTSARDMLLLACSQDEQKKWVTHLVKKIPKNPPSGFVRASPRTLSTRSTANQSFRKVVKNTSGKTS
Sequence of Mitogen-activated protein kinase kinase kinase kinase 5 (Homo sapiens) (Q9Y4K4 whole entry, looked up): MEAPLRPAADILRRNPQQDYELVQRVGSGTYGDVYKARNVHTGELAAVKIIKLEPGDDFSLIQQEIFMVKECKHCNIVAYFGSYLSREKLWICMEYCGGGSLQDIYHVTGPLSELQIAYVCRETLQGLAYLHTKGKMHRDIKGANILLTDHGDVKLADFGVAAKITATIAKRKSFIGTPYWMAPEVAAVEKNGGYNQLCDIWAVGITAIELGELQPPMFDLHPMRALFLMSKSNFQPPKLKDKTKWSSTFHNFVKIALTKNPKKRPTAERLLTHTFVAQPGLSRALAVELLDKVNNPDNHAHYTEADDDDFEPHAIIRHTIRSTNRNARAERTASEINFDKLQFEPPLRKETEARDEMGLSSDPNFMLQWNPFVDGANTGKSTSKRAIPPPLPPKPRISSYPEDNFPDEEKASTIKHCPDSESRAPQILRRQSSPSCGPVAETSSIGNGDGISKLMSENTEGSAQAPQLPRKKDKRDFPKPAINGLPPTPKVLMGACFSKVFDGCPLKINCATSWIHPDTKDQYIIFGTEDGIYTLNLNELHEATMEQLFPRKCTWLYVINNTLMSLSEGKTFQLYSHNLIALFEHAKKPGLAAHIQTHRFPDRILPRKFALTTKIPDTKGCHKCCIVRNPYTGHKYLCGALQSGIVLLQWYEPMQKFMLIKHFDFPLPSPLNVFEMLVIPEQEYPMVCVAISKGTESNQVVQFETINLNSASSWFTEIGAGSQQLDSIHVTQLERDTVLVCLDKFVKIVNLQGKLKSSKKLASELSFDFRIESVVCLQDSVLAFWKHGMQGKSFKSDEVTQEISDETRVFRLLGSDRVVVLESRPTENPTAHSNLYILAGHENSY

With `CCN1CCN(Cc2ccc(NC(=O)c3ccc(C)c(C#Cc4cnc5[nH]ccc5c4)c3)cc2C(F)(F)F)CC1` the residual binding, % of control [1] was 1.1%, the inhibition [2] was 11% and the residual binding, % of control [3] was 0.2%. For the same compound, the inhibition [4] was 5.4%, the level, % of control [5] was 90% and the % of control [6] was 0.05%. For the same compound, the inhibition [7] was 40%, the residual binding, % of control [8] was 20% and the level, % of control [9] was 88%. It also gave a residual binding, % of control [10] of 4.9%, an inhibition [11] of 98% and a residual binding, % of control [12] of 27%. The residual binding, % of control [13] was 0.1%, the residual binding, % of control [14] was 2% and the residual binding, % of control [15] was 0%. The level, % of control [16] was 2.2%, the level, % of control [17] was 1.8% and the residual binding, % of control [18] was 25%. It also gave a level, % of control [19] of 0%, a level, % of control [20] of 0.75% and an inhibition [21] of 0.3%. For the same compound, the residual binding, % of control [22] was 0.35%, the residual binding, % of control [23] was 0% and the residual binding, % of control [24] was 100%. It also gave a level, % of control [25] of 0%, an inhibition [26] of 93% and a level, % of control [27] of 0.45%. It also gave a residual binding, % of control [28] of 82%, a residual binding, % of control [29] of 1.6% and an inhibition [30] of 56%. It also gave a % of control [31] of 18%, an inhibition [32] of 60% and a residual binding, % of control [33] of 88%. The inhibition [34] was 100%, the inhibition [35] was 100% and the residual binding, % of control [36] was 2.6%. The residual binding, % of control [37] was 0.15%, the residual binding, % of control [38] was 1.2% and the % of control [39] was 2.6%. For the same compound, the inhibition [40] was 93%.

`CCN1CCN(Cc2ccc(NC(=O)c3ccc(C)c(C#Cc4cccnc4)c3)cc2C(F)(F)F)CC1` gave a residual binding, % of control [1] of 2.6%, an inhibition [2] of 45% and a residual binding, % of control [3] of 0.05%. For the same compound, the inhibition [4] was 11%, the level, % of control [5] was 81% and the % of control [6] was 0%. The inhibition [7] was 42%, the residual binding, % of control [8] was 40% and the level, % of control [9] was 80%. The residual binding, % of control [10] was 4%, the inhibition [11] was 97% and the residual binding, % of control [12] was 8.4%. The residual binding, % of control [13] was 0.75%, the residual binding, % of control [14] was 6.4% and the residual binding, % of control [15] was 0%. For the same compound, the level, % of control [16] was 44%, the level, % of control [17] was 2.6% and the residual binding, % of control [18] was 43%. For the same compound, the level, % of control [19] was 0.75%, the level, % of control [20] was 1.8% and the inhibition [21] was 0.1%. The residual binding, % of control [22] was 0.35%, the residual binding, % of control [23] was 0% and the residual binding, % of control [24] was 100%. The level, % of control [25] was 0%, the inhibition [26] was 89% and the level, % of control [27] was 0.55%. For the same compound, the residual binding, % of control [28] was 48%, the residual binding, % of control [29] was 3% and the inhibition [30] was 57%. The % of control [31] was 60%, the inhibition [32] was 43% and the residual binding, % of control [33] was 100%. For the same compound, the inhibition [34] was 100%, the inhibition [35] was 90% and the residual binding, % of control [36] was 1.8%. It also gave a residual binding, % of control [37] of 0%, a residual binding, % of control [38] of 3% and a % of control [39] of 2.5%. It also gave an inhibition [40] of 93%.
